Data on 32 compounds can be found in patent EP1370276B1, “INTERCELLULAR COMMUNICATION FACILITATING COMPOUNDS AND THEIR MEDICAL USE” (Zealand Pharma A/S, priority 2001, dated 2002).

Where a SMILES comes first, the peptide text is derived from it. [ ]: non-standard residue; d: D form. The star is where a group is joined. dTyr(3,5-I2) = N[C@H](Cc1cc(I)c(O)c(I)c1)C(=O)O; Dnp = O=[N+]([O-])c1ccc(*)c([N+](=O)[O-])c1; X1 = [N-]=[N+]=Nc1cc(O)c(C(=O)*)cc1I; Hyp = O=C(O)[C@@H]1C[C@@H](O)CN1; dHyp = O=C(O)[C@H]1C[C@H](O)CN1; Sar = CNCC(=O)O

Experiment [1] has as its system calcium-induced arrythmias. The experiment can be described thus: Calcium-induced arrhythmia model in mice (time to 2nd degree AV-block). It counts as in vivo. More on the design: CaCl2 mice Score: scale not given here. The settings on record: for CaCl2 mice Score / CaCl2 mice In vivo, %: calcium chloride induced arrythmia model; for CaCl2 mice Score: no key for the score. Here is the method:
The antiarrhythmic effects of compounds of this invention were tested in an in vivo model of calcium-induced arrythmias according to the model of Lynch et al. ^[37]. […]. Commercial solutions of hypnorm and midazolam were diluted 1:1 in distilled water and one part diluted Hypnorm® is mixed with one part diluted midazolam.
The anaesthesia was induced by s.c. administration in a dose of […]. An i.v. cannula was inserted into the tail vein. The lead II ECG signal was recorded continuously by positioning of a stainless steel ECG electrodes on the right forelimb and on the left hind limb. The ground electrode was placed on the right hind limb. The signal was amplified (x 5.000-10.000) and filtered (0.1-150 Hz) via a Hugo Sachs Electronic model 689 ECG module. The analogue signal was digitised via a 12 bit data acquisition board (Data Translation model DT321) and sampled at 1000 Hz using the Notocord HEM 3.1 software for Windows NT. After a 10-min equilibration period, the test sample of drug was injected into the tail vein. Mice pre-treated with vehicle were tested as a measure of the control level in untreated animals. The injection volume was 100 µl in all experiments. Infusion of CaCl2 (30 mg/ml, 0.1 ml/min ≈ 100 mg/kg/min (calciumchlorid-2-hydrat, Riedel-de Haën, Germany)) was started 3 min after i.v. administration of drug or vehicle. The time lag to onset of 2nd degree AV-block was determined as the time from the start of CaCl2 infusion until the first arrhythmic event occured. An event of 2nd degree AV-block was defined as intermittent failure of the AV conduction characterised by a P-wave without the concomitant QRS complex.
Responses were expressed relative to the time until 2nd degree AV-block occurred in vehicle treated mice.

The next experiment relates to CHO cells. Put plainly: In situ binding of [125I]AAP10 on intact CHO cells. The settings on record: overnight at 4° C. Here is the method:
CHO cells are seeded in 24-multi well dishes in a density of 7,900 cells/cm^2 (∼ 15,000 cells/well) and grown for 3 Days In Vitro (DIV) in 1 ml/well of F-12K Nutrient Mixture supplemented with 10% Foetal Calf Serum (FCS) and 1000 units penicillin/1000 µg streptomycin (pen/strep) in an atmosphere of 5% CO2 and 100% humidity at 37° C. The cell density has at that time increased to 295,000 cells/cm^2 (152 pgprot/cell ∼ 85 µgprot/well).
On the day of analysis cells are removed from the incubator and each well is washed twice with, depending on the experiment, either 2 ml pre-warmed (37 °C) or ice-cold (0 °C) D-PBS to remove serum. It is important to keep the period to a minimum during which cells are left without physiological solutions to avoid that they dry out during washing procedures. The cold washed cells are used directly for binding assays while the warm washed cells are used for experiments with glucose and oxygen deprivation.
The in situ binding is performed by a modified protocol based on the description by Koenig. […] Cells incubate overnight at 4° C to reach equilibrium. Each well, one at the time, is then rinsed rapidly with 2 x 1 ml D-PBS and left to dry.
0.25 ml of 0.5 % Triton-X-100 (v/v) is added to each well and cells left for at least 1 h to solubilize. The extract is transferred to counting vials, the wells rinsed with 0.25 ml water and the rinse extract added to the corresponding vials. The vials are counted in a γ-counter. Table 3. In situ binding, IC50 (nM).

A word on the IC50: it is the midpoint of a concentration-inhibition curve.

Turning to [Pro^4]AAP10-NH2, in experiment [1], the “CaCl2 mice Score” value was 3.
As for `NC(=O)CNC(=O)[C@H](CC(N)=O)NC(=O)[C@@H](N)Cc1ccc(O)cc1` [H-YNG-NH2] (H-Tyr-Asn-Gly-NH2), the “CaCl2 mice Score” value in experiment [1] is given as 2.
Take `C[C@H](NC(=O)CN)C(=O)NCC(=O)N1C[C@H](O)C[C@H]1C(=O)N1CCC[C@H]1C(=O)N[C@@H](Cc1ccc(O)cc1)C(=O)N[C@@H](CC(N)=O)C(N)=O` [H-AAP-10-Asn-NH2] (H-GAG[Hyp]PYN-NH2): the “CaCl2 mice Score” value in experiment [1] was found to be 2.
Take `C[C@H](NC(=O)CN)C(=O)N[C@@H](CC(N)=O)C(=O)N[C@@H](Cc1ccc(O)cc1)C(N)=O` [H-GANY-NH2] (H-GANY-NH2): the “CaCl2 mice Score” value in experiment [1] stood at 1.
With H-GAG-DHyp-DProY-NH2, in experiment [1], the “CaCl2 mice In vivo, %” value is listed as 49 +/- 6% and the “CaCl2 mice Score” value was 2.
As for `CC(=O)N[C@H](Cc1cc(I)c(O)c(I)c1)C(=O)N1CCC[C@@H]1C(=O)N1C[C@@H](O)C[C@@H]1C(=O)NCC(=O)N[C@H](C)C(=O)NCC(N)=O` [Compound 24] (Ac-[dTyr(3,5-I2)][dP][dHyp]G[dA]G-NH2), in the experiment with CHO cells, the IC50 was found to be 65 nM.
In the case of `CNCC(=O)N[C@@H](C)C(=O)N(C)CC(=O)N1C[C@H](O)C[C@H]1C(=O)N1CCC[C@H]1C(=O)N[C@@H](Cc1ccc(O)cc1)C(N)=O` [H-Sar-A-Sar-Hyp-PY-NH2] (H-[Sar]A[Sar][Hyp]PY-NH2), in experiment [1], the “CaCl2 mice In vivo, %” value is given as 24 +/- 7% and the “CaCl2 mice Score” value is on record as 1.
As to HPP-PHypGAGKKKKKK-OH, in experiment [1], the “CaCl2 mice In vivo, %” value is listed as 80 +/- 17% and the “CaCl2 mice Score” value is 3.
With `CC(=O)N[C@@H](Cc1ccc(O)cc1)C(=O)N[C@@H](CC(=O)O)C(=O)N[C@@H](CC(N)=O)C(=O)NCC(N)=O` [Ac-Y-D-N-G-NH2] (Ac-YDNG-NH2), in experiment [1], the “CaCl2 mice Score” value was found to be 1.
Take Cyclo(retro-AAP-10-Asn): in experiment [1], the “CaCl2 mice In vivo, %” value was 59 +/- 9% and the “CaCl2 mice Score” value is 2.
Regarding des-Hyp^4-[Asn^5]AAP-10-NH2, in experiment [1], the “CaCl2 mice In vivo, %” value is recorded as 53 +/- 15% and the “CaCl2 mice Score” value is 2.
Turning to GNY, in experiment [1], the “CaCl2 mice In vivo, %” value is 58 +/- 10% and the “CaCl2 mice Score” value stood at 2.
Consider `C[C@H](NC(=O)CNC(=O)[C@@H]1C[C@@H](O)CN1C(=O)[C@@H]1CCCN1C(=O)c1cc(I)c(N=[N+]=[N-])cc1O)C(=O)NCC(N)=O` [Compound 32] (X1-P[Hyp]GAG-NH2), for which the IC50 in the experiment with CHO cells was 0.5 nM.
For the compound `CC(=O)N[C@@H](Cc1ccc(O)cc1)C(=O)N1CCC[C@H]1C(=O)N1C[C@H](O)C[C@H]1C(=O)NCC(=O)N[C@@H](C)C(=O)NCC(=O)O` [Compound 1, Ac-Tyr-Pro-4Hyp-Gly-Ala-Gly-OH] (Ac-YP[Hyp]GAG-OH), in experiment [1], the “CaCl2 mice Score” value was 1.
In the case of AcGNY, in experiment [1], the “CaCl2 mice In vivo, %” value was 46 +/- 9% and the “CaCl2 mice Score” value was determined as 2.
In the case of `C[C@H](NC(=O)CNC(=O)[C@H](CC(N)=O)NC(=O)[C@H](Cc1ccc(O)cc1)NC(=O)[C@@H]1CCCN1C(=O)[C@@H]1C[C@@H](O)CN1)C(=O)NCC(N)=O` [H-HypPYNGAG-NH2] (H-[Hyp]PYNGAG-NH2), in experiment [1], the “CaCl2 mice In vivo, %” value is given as 34 +/- 10% and the “CaCl2 mice Score” value came out at 2.
With `NCC(=O)N[C@H](CC(N)=O)C(=O)N[C@@H](Cc1ccc(O)cc1)C(N)=O` [H-G-DN-Y-NH2] (H-Gly-[dN]-Tyr-NH2), the “CaCl2 mice Score” value in experiment [1] came to 2.
On the same count and under the same terms, with `CC(=O)N[C@@H](Cc1ccc(O)cc1)C(=O)N[C@H](CC(N)=O)C(=O)NCC(=O)O` [Ac-Y-DN-G-OH] (Ac-Tyr-[dN]-Gly-OH) the figure was 2; with `NCC(=O)N[C@@H](CCCCNc1ccc([N+](=O)[O-])cc1[N+](=O)[O-])C(=O)N[C@@H](Cc1ccc(O)cc1)C(N)=O` [H-GK(DNP)Y-NH2] (H-Gly-Lys(Dnp)-Tyr-NH2), 1; with H-GAGGPY-NH2 [H-GAGGPY-NH2], 2.
On to CF3C(O)-AAP10-NH2, for which, in experiment [1], the “CaCl2 mice Score” value came to 3.
On to HPP-PHypGAGKKKKKK-NH2, for which, in experiment [1], the “CaCl2 mice In vivo, %” value is given as 21 +/- 17% and the “CaCl2 mice Score” value came to 1.
As for `CC(=O)NCC(=O)N[C@@H](CC(=O)O)C(=O)N[C@@H](CC(N)=O)C(=O)N[C@@H](Cc1ccc(O)cc1)C(N)=O` [Ac-G-D-N-Y-NH2] (Ac-GDNY-NH2), in experiment [1], the “CaCl2 mice Score” value is given as 1.
In the case of “3-(4-hyd roxyphenyl)propionyl-Pro-Hyp-Gly-Ala-Gly-OH [HP5, reference compound]”, the “CaCl2 mice Score” value in experiment [1] is given as 2. The In vivo activity entry in experiment [1] (maximal effect, increase in time until 2nd degree AV-block relative to vehicle, i.v.) is on record as “++ (++ refers to 30-50% increase in time until arrhythmia)”.
As for `NC(=O)C[C@@H](NC(=O)[C@@H](N)Cc1ccc(O)cc1)C(=O)NCC(=O)O` [H-Y-DN-G-OH] (H-Tyr-[dN]-Gly-OH), the “CaCl2 mice Score” value in experiment [1] is given as 2.
Regarding H-GAG-DHypAY-NH2, in experiment [1], the “CaCl2 mice In vivo, %” value was 29 +/- 9% and the “CaCl2 mice Score” value was determined as 1.
For H-[D-Hyp^4]AAP-10-NH2 the same measures were 28 +/- 10% and 1.
On to `C[C@H](NC(=O)CN)C(=O)N(C)CC(=O)N1C[C@H](O)C[C@H]1C(=O)N1CCC[C@H]1C(=O)N[C@@H](Cc1ccc(O)cc1)C(N)=O` [H-GA-Sar-Hyp-PY-NH2] (H-GA[Sar][Hyp]PY-NH2), for which, in experiment [1], the “CaCl2 mice In vivo, %” value is on record as 46 +/- 11% and the “CaCl2 mice Score” value amounted to 2.
For `C[C@H](NC(=O)CN)C(=O)NCC(=O)N1CCC[C@@H]1C(=O)N[C@@H](C)C(=O)N[C@@H](Cc1ccc(O)cc1)C(N)=O` [H-[D-Pro^4, Ala^5]AAP-10-NH2] (H-GAG[dP]AY-NH2), in experiment [1], the “CaCl2 mice In vivo, %” value was 29 +/- 12% and the “CaCl2 mice Score” value is listed as 1.
On to H-AAP-10-K6-OH, for which, in experiment [1], the “CaCl2 mice In vivo, %” value is listed as 64 +/- 10% and the “CaCl2 mice Score” value turned out to be 3.
Take `NCC(=O)NCC(=O)N[C@@H](Cc1ccc(O)cc1)C(N)=O` [H-GGY-NH2] (H-Gly-Gly-Tyr-NH2): in experiment [1], the “CaCl2 mice Score” value is recorded as 2.
For the compound H-DY-DN-G-NH2, the “CaCl2 mice Score” value in experiment [1] is 1.
